{"source": "patent US8492441B2", "about": "“Dosage regimen of an S1P receptor agonist” (Novartis AG, priority 2008, dated 2013)", "key": {"subjects [1]": {"system": "subjects", "experiment": "Example 1 dose titration study: continuous telemetry of heart rate (daily minimum heart rate, HRmin)", "format": "in vivo, human", "protocol": "(§1) Increasing doses of Compound A starting at 0.25 mg o.d. and ending at the maximal therapeutic dose of 10 mg o.d. are given to 28 subjects over 12 days as specified in Table 1 below. A placebo group and a positive control group receiving the 10 mg final therapeutic dose are also included in the study (each of 14 subjects).\nOn Day −1 (baseline), subjects undergo baseline assessments including 24 hour holter monitoring and telemetry assessments. Subjects remain on continuous telemetry, starting before breakfast on Day −1 and proceeding throughout the administration period up to Day 13 (24 hour after the last dose). Over this 13 day duration of continuous heart rate collection for each subject, one heart rate value is obtained every minute (‘minute unit heart rate’), representing the average heart rate value over that minute. The heart rate database for each subject contains approximately […] data points (13 days×24 hr×60 min).\nThe daily chronotropic effect is defined as the percent decrease in HRmin between two consecutive days. It is calculated on days 1 to 12.\n(§2) Cardiac conduction intervals: arrhythmia monitoring includes the frequency and duration of sinus pauses (>2 sec and >3 sec) and atrio-ventricular blocks. Frequency and duration of atrial and ventricular ectopy and sinus rhythm are also recorded. The daily chronotropic effect is defined as the percent decrease in HRmin, (minimum heart rate) between two consecutive days. It is calculated on days 1 to 12.\nThe variation in daily minimum heart rate, HRmin (minimum of 24 hourly mean heart rates) over the course of the study is shown in FIG. 1."}, "healthy subjects [2]": {"system": "healthy subjects", "experiment": "Absolute lymphocyte count after multiple daily doses (FIG. 2)", "format": "in vivo, human", "description": "Preferred medications comprise medication for patients suffering from chronic longterm diseases, such as autoimmune diseases, e.g. multiple sclerosis, Polymyositis, lupus nephritis, rheumatoid arthritis, inflammatory bowel diseases or psoriasis. In an embodiment of the invention, medications are medications for patients suffering from multiple sclerosis, for example relapse remitting multiple sclerosis (RRMS) or primary progressive multiple sclerosis (PPMS), e.g. for patients suffering from RRMS."}, "subjects [3]": {"system": "subjects", "experiment": "Example 1 dose titration study: Holter monitoring of ectopies (SVEs, VEs) and pauses >2 secs", "format": "in vivo, human", "details": "for subjects with total number of SVEs 0-10 / subjects with total number of SVEs 11-20 / subjects with total number of SVEs 21-50 / subjects with total number of SVEs >50 / subjects with total number of VEs 0-5 / subjects with total number of VEs 6-10 / subjects with total number of VEs 11-30 / subjects with total number of VEs >30 / subjects with total number of pauses >2 secs: 0 / subjects with total number of pauses >2 secs: 1 / subjects with total number of pauses >2 secs: >1: any time during the 12-day treatment period", "protocol": "as §1\nPharmacodynamic and safety assessments are performed up to 24 hours post last dose. Heart rhythm is assessed via 24 hr continuous holter monitoring on Day −1, Day 1, Day 11 and Day 12. For each dosing for each subject, the drug is administered as closely as practically possible to the time administered on Day −1. Safety assessments includes physical examinations, vital signs and body measurements, 12-lead ECG evaluations, standard clinical laboratory evaluations hematology, blood chemistry, urinalysis, adverse event and serious adverse event monitoring.\n24-hour continuous Holter-ECG data are captured via a digital Holter monitor (12-lead, on Days […]), and transferred for interpretation and reporting. Holter monitoring starts approximately at 7:00 and the time of dose administration is regarded as the time “0 hours”. Holter “cuts” are derived from the dataset at 1 hour intervals starting from Day −1 and continuing for 24 hours or the end of the cleaned Holter monitoring dataset.\nas §2"}, "multiple sclerosis": {"system": "multiple sclerosis", "details": "humans; cited from earlier work"}, "healthy subjects [4]": {"system": "healthy subjects", "details": "administration of 1.25 mg; cited from earlier work"}, "[5]": {"details": "10 mg daily from Day 1 (N = 14)"}, "[6]": {"details": "DT#1 titration 0.25 to 10 mg (N = 14)"}, "[7]": {"details": "DT#2 titration (Fibonacci) 0.25 to 10 mg (N = 14)"}}}
{"smiles": "CCc1cc(/C(C)=N/OCc2ccc(C3CCCCC3)c(C(F)(F)F)c2)ccc1CN1CC(C(=O)O)C1", "note": "[Compound A, 1-{4-[1-(4-cyclohexyl-3-trifluoromethyl-benzyloxyimino)-ethyl]-2-ethyl-benzyl}-azetidine-3-carboxylic acid]", "values": [{"measurement": "increase in heart rate", "setting": "subjects [1]; 10 mg treatment group, from Day 1 to Day 2", "result": "approximately 5 BPM"}, {"measurement": "decrease in heart rate", "setting": "subjects [1]; 10 mg treatment group, from Day -1 to Day 1", "result": "approximately 8 BPM"}, {"measurement": "further increase in heart rate", "setting": "subjects [1]; 10 mg treatment group, from day 2 to day 4", "result": "approximately 3 BPM"}, {"measurement": "gradual decrease in heart rate per day", "setting": "subjects [1]; both titration groups (DT#1, DT#2), first seven days of the dose titration", "result": "1-2 BPM per day"}, {"measurement": "total reduction in heart rate", "setting": "subjects [1]; both titration groups (DT#1, DT#2), over the first seven days of the dose titration", "result": "4-5 BPM"}, {"measurement": "heart rate recovery after day 7", "setting": "subjects [1]; both titration groups, over the next 2-3 days after the first seven days", "result": "the heart rate increased to approximately the placebo level"}, {"measurement": "dip in heart rate on initiation of the 10 mg dose after titration", "setting": "subjects [1]; titration groups, 10 mg dose initiated on Days 8 and 9, compared to preceding days", "result": "did not result in a significant dip in heart rate"}, {"measurement": "effect of dose titration regimen on negative chronotropic effect", "setting": "subjects [1]; titration regimen vs Day 1 of 10 mg dose treatment initiation", "result": "attenuates the negative chronotropic effect"}, {"measurement": "absolute lymphocyte count in the blood", "setting": "healthy subjects [2]", "result": "reduces the absolute lymphocyte count"}, {"measurement": "subjects with total number of SVEs 0-10", "setting": "subjects [3]; [5]", "result": "1 (7.1%) n (%)"}, {"measurement": "subjects with total number of SVEs 11-20", "setting": "subjects [3]; [5]", "result": "2 (14.3%) n (%)"}, {"measurement": "subjects with total number of SVEs 21-50", "setting": "subjects [3]; [5]", "result": "5 (35.7%) n (%)"}, {"measurement": "subjects with total number of SVEs >50", "setting": "subjects [3]; [5]", "result": "6 (42.9%) n (%)"}, {"measurement": "subjects with total number of VEs 0-5", "setting": "subjects [3]; [5]", "result": "6 (42.9%) n (%)"}, {"measurement": "subjects with total number of VEs 6-10", "setting": "subjects [3]; [5]", "result": "4 (28.6%) n (%)"}, {"measurement": "subjects with total number of VEs 11-30", "setting": "subjects [3]; [5]", "result": "1 (7.1%) n (%)"}, {"measurement": "subjects with total number of VEs >30", "setting": "subjects [3]; [5]", "result": "3 (21.4%) n (%)"}, {"measurement": "subjects with total number of pauses >2 secs: 0", "setting": "subjects [3]; [5]", "result": "10 (71.4%) n (%)"}, {"measurement": "subjects with total number of pauses >2 secs: 1", "setting": "subjects [3]; [5]", "result": "1 (7.1%) n (%)"}, {"measurement": "subjects with total number of pauses >2 secs: >1", "setting": "subjects [3]; [5]", "result": "3 (21.4%) n (%)"}, {"measurement": "subjects with total number of SVEs 0-10", "setting": "subjects [3]; [6]", "result": "1 (7.1%) n (%)"}, {"measurement": "subjects with total number of SVEs 11-20", "setting": "subjects [3]; [6]", "result": "3 (21.4%) n (%)"}, {"measurement": "subjects with total number of SVEs 21-50", "setting": "subjects [3]; [6]", "result": "2 (14.3%) n (%)"}, {"measurement": "subjects with total number of SVEs >50", "setting": "subjects [3]; [6]", "result": "8 (57.1%) n (%)"}, {"measurement": "subjects with total number of VEs 0-5", "setting": "subjects [3]; [6]", "result": "3 (21.4%) n (%)"}, {"measurement": "subjects with total number of VEs 6-10", "setting": "subjects [3]; [6]", "result": "5 (35.7%) n (%)"}, {"measurement": "subjects with total number of VEs 11-30", "setting": "subjects [3]; [6]", "result": "4 (28.6%) n (%)"}, {"measurement": "subjects with total number of VEs >30", "setting": "subjects [3]; [6]", "result": "2 (14.3%) n (%)"}, {"measurement": "subjects with total number of pauses >2 secs: 0", "setting": "subjects [3]; [6]", "result": "10 (71.4%) n (%)"}, {"measurement": "subjects with total number of pauses >2 secs: 1", "setting": "subjects [3]; [6]", "result": "1 (7.1%) n (%)"}, {"measurement": "subjects with total number of pauses >2 secs: >1", "setting": "subjects [3]; [6]", "result": "3 (21.4%) n (%)"}, {"measurement": "subjects with total number of SVEs 0-10", "setting": "subjects [3]; [7]", "result": "0 n (%)"}, {"measurement": "subjects with total number of SVEs 11-20", "setting": "subjects [3]; [7]", "result": "1 (7.1%) n (%)"}, {"measurement": "subjects with total number of SVEs 21-50", "setting": "subjects [3]; [7]", "result": "4 (28.6%) n (%)"}, {"measurement": "subjects with total number of SVEs >50", "setting": "subjects [3]; [7]", "result": "9 (64.3%) n (%)"}, {"measurement": "subjects with total number of VEs 0-5", "setting": "subjects [3]; [7]", "result": "3 (21.4%) n (%)"}, {"measurement": "subjects with total number of VEs 6-10", "setting": "subjects [3]; [7]", "result": "2 (14.3%) n (%)"}, {"measurement": "subjects with total number of VEs 11-30", "setting": "subjects [3]; [7]", "result": "5 (35.7%) n (%)"}, {"measurement": "subjects with total number of VEs >30", "setting": "subjects [3]; [7]", "result": "4 (28.6%) n (%)"}, {"measurement": "subjects with total number of pauses >2 secs: 0", "setting": "subjects [3]; [7]", "result": "13 (92.9%) n (%)"}, {"measurement": "subjects with total number of pauses >2 secs: 1", "setting": "subjects [3]; [7]", "result": "0 n (%)"}, {"measurement": "subjects with total number of pauses >2 secs: >1", "setting": "subjects [3]; [7]", "result": "1 (7.1%) n (%)"}, {"measurement": "number of heart pauses greater than 2 seconds, comparison of regimens", "setting": "subjects [3]; second titration regimen DT#2 (Fibonacci sequence) vs the other active treatment regimens", "result": "lower number of heart pauses greater than 2 seconds"}]}
{"smiles": "CCCCCCCCc1ccc(CCC(N)(CO)CO)cc1", "note": "[FTY720]", "values": [{"measurement": "efficacy in the treatment of multiple sclerosis", "setting": "multiple sclerosis", "result": "has been demonstrated in humans"}, {"measurement": "decrease in heart rate", "setting": "healthy subjects [4]", "result": "approximately 8 beats/min (BPM)"}]}
